Measurements: PMC6001238, “Iterative Chemical Engineering of Vancomycin Leads to Novel Vancomycin Analogs With a High in Vitro Therapeutic Index” (Frontiers in Microbiology, 2018)
Values after ≈ are worked out from the molar mass of the structure shown.

What was measured:
S. aureus VRSA = assay: MIC, broth microdilution, vancomycin-resistant S. aureus (VRSA); assay type: cell-based, Staphylococcus aureus; conditions: for MIC: Staphylococcus aureus VRSA, read-out: MIC; for MIC-fold improvement vs. vancomycin: VRSA, ratio of MIC of vancomycin and MIC of analogue
Summary of the method: (§1)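 Broth microdilution per CLSI; controls = ultrapure water, non-inoculated broth. One set: + vancomycin 10 μM final alongside test analogue/control drug.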

[1] = tested on: human cervix carcinoma (HeLa) cells; assay: Cytostatic activity, HeLa cell proliferation; assay type: cell-based; conditions: mean ± SD of three experiments; highest concentration tested 250 µM; 4 days; read-out: Toxicity (IC50) HeLa
Summary of the method: (§2)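 Suspensions (300,000–500,000 cells/mL) combined with equal volumes of diluted compound; 37°C; L1210 2 d / CEM 3 d / HeLa 4 d; counted by Coulter counter; IC50 vs untreated wells.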

[2] = tested on: Murine leukemia (L1210) cells; assay: Cytostatic activity, L1210 cell proliferation; assay type: cell-based; conditions: mean ± SD of three experiments; highest concentration tested 250 µM; 2 days; read-out: Toxicity (IC50) L1210
Summary of the method: as §2

MRSA KS89 = assay: MIC, broth microdilution, MRSA KS89; assay type: cell-based, Staphylococcus aureus; conditions: for MIC-fold improvement vs. vancomycin: MRSA KS8, ratio of MIC of vancomycin and MIC of analogue; for MIC: Staphylococcus aureus MRSA KS8, read-out: MIC
Summary of the method: as §1

[3] = tested on: L1210, CEM and HeLa cell lines; assay: Cytostatic activity, average or summary over L1210, CEM and HeLa; assay type: cell-based; conditions: average of L1210, CEM and HeLa; read-out: Toxicity (IC50) Average
Summary of the method: as §2

MRSA KS2 = assay: MIC, broth microdilution, MRSA KS2; assay type: cell-based, Staphylococcus aureus; conditions: for MIC-fold improvement vs. vancomycin: MRSA KS2, ratio of MIC of vancomycin and MIC of analogue; for MIC: Staphylococcus aureus MRSA KS2, read-out: MIC
Summary of the method: as §1

MRSA KS1 = assay: MIC, broth microdilution, MRSA KS1; assay type: cell-based, Staphylococcus aureus; conditions: for MIC-fold improvement vs. vancomycin: MRSA KS1, ratio of MIC of vancomycin and MIC of analogue; for MIC: Staphylococcus aureus MRSA KS1, read-out: MIC
Summary of the method: as §1

E. faecalis VRE 29 = assay: MIC, broth microdilution, vancomycin-resistant E. faecalis VRE 29 (VanA); assay type: cell-based, Enterococcus faecalis; conditions: for MIC: Enterococcus faecalis VRE 29 (vancomycin-resistant), read-out: MIC; for MIC-fold improvement vs. vancomycin: VRE 29, ratio of MIC of vancomycin and MIC of analogue
Summary of the method: as §1

S. aureus VISA/HIP5827 = assay: MIC, broth microdilution, vancomycin-intermediate S. aureus VISA HIP5827; assay type: cell-based, Staphylococcus aureus; conditions: for MIC: Staphylococcus aureus VISA/HIP5827, read-out: MIC; for MIC-fold improvement vs. vancomycin: VISA/HIP5827, ratio of MIC of vancomycin and MIC of analogue
Summary of the method: as §1

[4] = tested on: human T-lymphocyte (CEM) cells; assay: Cytostatic activity, CEM cell proliferation; assay type: cell-based; conditions: mean ± SD of three experiments; highest concentration tested 250 µM; 3 days; read-out: Toxicity (IC50) CEM
Summary of the method: as §2

E. faecalis VRE 53 = assay: MIC, broth microdilution, vancomycin-resistant E. faecalis VRE 53 (VanA); assay type: cell-based, Enterococcus faecalis; conditions: for MIC: Enterococcus faecalis VRE 53 (vancomycin-resistant), read-out: MIC; for MIC-fold improvement vs. vancomycin: VRE 53, ratio of MIC of vancomycin and MIC of analogue
Summary of the method: as §1

MRSA KS6 = assay: MIC, broth microdilution, MRSA KS6; assay type: cell-based, Staphylococcus aureus; conditions: for MIC-fold improvement vs. vancomycin: MRSA KS6, ratio of MIC of vancomycin and MIC of analogue; for MIC: Staphylococcus aureus MRSA KS6, read-out: MIC
Summary of the method: as §1

[5] = tested on: S. aureus VSSA (ATCC 6538); assay: MIC, broth microdilution, vancomycin-sensitive S. aureus (VSSA/MSSA, ATCC 6538); assay type: cell-based, Staphylococcus aureus; conditions: for MIC: Staphylococcus aureus VSSA, read-out: MIC; for MIC-fold improvement vs. vancomycin: VSSA, ratio of MIC of vancomycin and MIC of analogue
Summary of the method: as §1

E. faecalis VRE 6 = assay: MIC, broth microdilution, vancomycin-resistant E. faecalis VRE 6 (VanA); assay type: cell-based, Enterococcus faecalis; conditions: for MIC: Enterococcus faecalis VRE 6 (vancomycin-resistant), read-out: MIC; for MIC-fold improvement vs. vancomycin: VRE 6, ratio of MIC of vancomycin and MIC of analogue
Summary of the method: as §1

E. faecalis VSE 1 = assay: MIC, broth microdilution, vancomycin-sensitive E. faecalis (VSE 1); assay type: cell-based, Enterococcus faecalis; conditions: for MIC: Enterococcus faecalis VSE 1 (vancomycin-sensitive), read-out: MIC; for MIC-fold improvement vs. vancomycin: VSE 1, ratio of MIC of vancomycin and MIC of analogue
Summary of the method: as §1

E. faecalis VRE 37 = assay: MIC, broth microdilution, vancomycin-resistant E. faecalis VRE 37 (VanA); assay type: cell-based, Enterococcus faecalis; conditions: for MIC: Enterococcus faecalis VRE 37 (vancomycin-resistant), read-out: MIC
Summary of the method: as §1

| SMILES | MIC (S. aureus VRSA) | MIC-fold improvement vs. vancomycin (S. aureus VRSA) | IC50 [1] | IC50 [2] | MIC-fold improvement vs. vancomycin (MRSA KS89) | MIC (MRSA KS89) | IC50 [3] | MIC-fold improvement vs. vancomycin (MRSA KS2) | MIC (MRSA KS2) | MIC-fold improvement vs. vancomycin (MRSA KS1) | MIC (MRSA KS1) | MIC (E. faecalis VRE 29) | MIC-fold improvement vs. vancomycin (E. faecalis VRE 29) | MIC (S. aureus VISA/HIP5827) | MIC-fold improvement vs. vancomycin (S. aureus VISA/HIP5827) | IC50 [4] | MIC (E. faecalis VRE 53) | MIC-fold improvement vs. vancomycin (E. faecalis VRE 53) | MIC-fold improvement vs. vancomycin (MRSA KS6) | MIC (MRSA KS6) | further results |
| --- | --- | --- | --- | --- | --- | --- | --- | --- | --- | --- | --- | --- | --- | --- | --- | --- | --- | --- | --- | --- | --- |
| CN[C@H](CC(C)C)C(=O)N[C@H]1C(=O)N[C@@H](CC(N)=O)C(=O)N[C@H]2C(=O)N[C@H]3C(=O)N[C@H](C(=O)N[C@H](C(=O)NCCNC(=O)/C=C/c4ccc(NS(=O)(=O)c5ccc(Cl)cc5Cl)cc4)c4cc(O)cc(O)c4-c4cc3ccc4O)[C@H](O)c3ccc(c(Cl)c3)Oc3cc2cc(c3O[C@@H]2O[C@H](CO)[C@@H](O)[C@H](O)[C@H]2O[C@H]2C[C@](C)(N)[C@H](O)[C@H](C)O2)Oc2ccc(cc2Cl)[C@H]1O [Vanc-64] | 0.39 µM (≈ 0.72 µg/mL) | 256 | 102 ± 39 µM | > 250 µM | 2 | 0.39 µM (≈ 0.72 µg/mL) | 187 µM | 4 | 0.20 µM (≈ 0.369 µg/mL) | 4 | 0.20 µM (≈ 0.369 µg/mL) | 6.25 µM (≈ 11.5 µg/mL) | 64 | 0.78 µM (≈ 1.44 µg/mL) | 8 | 210 ± 56 µM | 12.5 µM (≈ 23.1 µg/mL) | 32 | 4 | 0.20 µM (≈ 0.369 µg/mL) | MIC [5]: 0.39 µM (≈ 0.72 µg/mL); MIC-fold improvement vs. vancomycin [5]: 2; MIC (E. faecalis VRE 6): 3.13 µM (≈ 5.78 µg/mL); MIC-fold improvement vs. vancomycin (E. faecalis VRE 6): 64; MIC (E. faecalis VSE 1): 0.39 µM (≈ 0.72 µg/mL); MIC-fold improvement vs. vancomycin (E. faecalis VSE 1): 4; MIC (E. faecalis VRE 37): 6.25 µM (≈ 11.5 µg/mL); MIC-fold improvement vs. vancomycin (E. faecalis VRE 37; VRE 37, ratio of MIC of vancomycin and MIC of analogue): 64 |
| CN[C@H](CC(C)C)C(=O)N[C@H]1C(=O)N[C@@H](CC(N)=O)C(=O)N[C@H]2C(=O)N[C@H]3C(=O)N[C@H](C(=O)N[C@H](C(=O)NCC(=O)Nc4ccc(C)cc4Cl)c4cc(O)cc(O)c4-c4cc3ccc4O)[C@H](O)c3ccc(c(Cl)c3)Oc3cc2cc(c3O[C@@H]2O[C@H](CO)[C@@H](O)[C@H](O)[C@H]2O[C@H]2C[C@](C)(N)[C@H](O)[C@H](C)O2)Oc2ccc(cc2Cl)[C@H]1O [Vanc-2] | 12.5 µM (≈ 20.4 µg/mL) | 8 | 158 ± 84 µM | > 250 µM | 2 | 0.39 µM (≈ 0.636 µg/mL) | 219 µM | 2 | 0.39 µM (≈ 0.636 µg/mL) | 2 | 0.39 µM (≈ 0.636 µg/mL) | 12.5 µM (≈ 20.4 µg/mL) | 32 | 0.78 µM (≈ 1.27 µg/mL) | 8 | > 250 µM | 25 µM (≈ 40.7 µg/mL) | 16 | 2 | 0.39 µM (≈ 0.636 µg/mL) | MIC [5]: 0.78 µM (≈ 1.27 µg/mL); MIC-fold improvement vs. vancomycin [5]: 1; MIC (E. faecalis VRE 6): 12.5 µM (≈ 20.4 µg/mL); MIC-fold improvement vs. vancomycin (E. faecalis VRE 6): 16; MIC (E. faecalis VSE 1): 0.39 µM (≈ 0.636 µg/mL); MIC-fold improvement vs. vancomycin (E. faecalis VSE 1): 4; MIC (E. faecalis VRE 37): 25 µM (≈ 40.7 µg/mL) |
